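The concentration for 50% growth inhibition is given as GI50. Definition used: TGI = concentration required for complete inhibition of growth.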
Tests used:
Experiment in all cases: NCI-60 cell line screen, 384-well format
NCI-H226 lung = system: NCI-H226 lung
ACHN renal = system: ACHN renal
SN12C renal = system: SN12C renal
UACC-62 melanoma = system: UACC-62 melanoma
OVCAR-4 ovarian = system: OVCAR-4 ovarian
UO-31 renal = system: UO-31 renal
MDA-MB-231 breast = system: MDA-MB-231 breast
RPMI-8226 leukemia = system: RPMI-8226 leukemia
HT29 colon = system: HT29 colon
TK-10 renal = system: TK-10 renal
HL-60(TB) leukemia = system: HL-60(TB) leukemia
BT-549 breast = system: BT-549 breast
HS 578T breast = system: HS 578T breast
OVCAR-8 ovarian = system: OVCAR-8 ovarian
SF-268 CNS = system: SF-268 CNS
COLO 205 colon = system: COLO 205 colon
U251 glioblastoma = system: U251 glioblastoma
MOLT-4 leukemia = system: MOLT-4 leukemia
HCT-116 colon = system: HCT-116 colon
HCT-15 colon = system: HCT-15 colon
NCI-H322M lung = system: NCI-H322M lung
SK-MEL-28 melanoma = system: SK-MEL-28 melanoma
HOP-92 NSCLC = system: HOP-92 NSCLC
SF-539 CNS = system: SF-539 CNS
CAKI-1 renal = system: CAKI-1 renal
A498 renal = system: A498 renal
T-47D breast = system: T-47D breast
OVCAR-3 ovarian = system: OVCAR-3 ovarian
SNB-19 CNS = system: SNB-19 CNS
786-0 renal = system: 786-0 renal
SK-OV-3 ovarian = system: SK-OV-3 ovarian
MCF7 breast = system: MCF7 breast
SW-620 colon = system: SW-620 colon
SK-MEL-5 melanoma = system: SK-MEL-5 melanoma
SR leukemia = system: SR leukemia
OVCAR-5 ovarian = system: OVCAR-5 ovarian
NCI-H460 NSCLC = system: NCI-H460 NSCLC
DU-145 prostate = system: DU-145 prostate
PC-3 prostate = system: PC-3 prostate
NCI-H23 lung = system: NCI-H23 lung
MALME-3M melanoma = system: MALME-3M melanoma
HOP-62 NSCLC = system: HOP-62 NSCLC
SF-295 CNS = system: SF-295 CNS
IGROV1 ovarian = system: IGROV1 ovarian
UACC-257 melanoma = system: UACC-257 melanoma
SNB-75 CNS = system: SNB-75 CNS
MDA-MB-435 melanoma = system: MDA-MB-435 melanoma

## O=C(Nc1cccc(NS(=O)(=O)c2ccc(F)cc2)c1)c1ccc(-c2ccccc2)cc1
NCI-H226 lung
  GI50: 5.91 µM
  TGI: 20.7 µM
ACHN renal
  GI50: 4.13 µM
  TGI: 21.6 µM
SN12C renal
  GI50: 3.45 µM
  TGI: 11.8 µM
UACC-62 melanoma
  GI50: 3.38 µM
  TGI: 15 µM
OVCAR-4 ovarian
  GI50: 3.85 µM
  TGI: 18.2 µM
UO-31 renal
  GI50: 3.59 µM
  TGI: 13.5 µM
MDA-MB-231 breast
  GI50: 3.72 µM
  TGI: 18.3 µM
RPMI-8226 leukemia
  GI50: 1.47 µM
  TGI: 3.75 µM
HT29 colon
  GI50: 4.49 µM
  TGI: 21.5 µM
TK-10 renal
  GI50: 4.17 µM
  TGI: 19.2 µM
HL-60(TB) leukemia
  GI50: 1.73 µM
  TGI: 3.46 µM
BT-549 breast
  GI50: 2.89 µM
  TGI: 8.64 µM
HS 578T breast
  GI50: 3.7 µM
  TGI: 15.3 µM
OVCAR-8 ovarian
  GI50: 3.57 µM
  TGI: 13.3 µM
SF-268 CNS
  GI50: 3.93 µM
  TGI: 17.2 µM
COLO 205 colon
  GI50: 4.33 µM
  TGI: 17.2 µM
U251 glioblastoma
  GI50: 2.35 µM
  TGI: 5.72 µM
MOLT-4 leukemia
  GI50: 1.81 µM
  TGI: 3.64 µM
HCT-116 colon
  GI50: 3.54 µM
  TGI: 12.6 µM
HCT-15 colon
  GI50: 4.05 µM
  TGI: 19.5 µM
NCI-H322M lung
  GI50: 3.9 µM
  TGI: 19.7 µM
SK-MEL-28 melanoma
  GI50: 17.1 µM
  TGI: 38.5 µM
HOP-92 NSCLC
  GI50: 2.94 µM
  TGI: 8.32 µM
SF-539 CNS
  GI50: 3.17 µM
  TGI: 11.1 µM
CAKI-1 renal
  GI50: 5.85 µM
  TGI: 26.6 µM
A498 renal
  GI50: 4.4 µM
  TGI: 16.8 µM
T-47D breast
  GI50: 2.03 µM
  TGI: 9.91 µM
OVCAR-3 ovarian
  GI50: 7.05 µM
  TGI: 20 µM
SNB-19 CNS
  GI50: 4.04 µM
  TGI: 21.7 µM
786-0 renal
  GI50: 2.95 µM
  TGI: 10.6 µM
SK-OV-3 ovarian
  GI50: 5.43 µM
  TGI: 28.3 µM
MCF7 breast
  GI50: 4.23 µM
  TGI: 14.4 µM
SW-620 colon
  GI50: 4.54 µM
  TGI: 16.2 µM
SK-MEL-5 melanoma
  GI50: 2.56 µM
  TGI: 7.94 µM
SR leukemia
  GI50: 1.76 µM
  TGI: 3.31 µM
OVCAR-5 ovarian
  GI50: 7.57 µM
  TGI: 26.7 µM
NCI-H460 NSCLC
  GI50: 3.23 µM
  TGI: 10.4 µM
DU-145 prostate
  GI50: 4.44 µM
  TGI: 26.5 µM
PC-3 prostate
  GI50: 3.36 µM
  TGI: 11.5 µM
NCI-H23 lung
  GI50: 2.53 µM
  TGI: 8.44 µM
MALME-3M melanoma
  GI50: 4.23 µM
  TGI: 17.4 µM
HOP-62 NSCLC
  GI50: 3.85 µM
  TGI: 11.6 µM
SF-295 CNS
  GI50: 2.79 µM
  TGI: 10.1 µM
IGROV1 ovarian
  GI50: 10.4 µM
  TGI: 37.1 µM
UACC-257 melanoma
  GI50: 4.02 µM
  TGI: 16.7 µM
SNB-75 CNS
  GI50: 5.65 µM
  TGI: 25.1 µM
MDA-MB-435 melanoma
  GI50: 4.59 µM
  TGI: 17.1 µM

Source: PubChem BioAssay (NCI)
